Data on 1 molecule can be found in US9895363B2, “Methods for modulating function of proliferating cell nuclear antigen (PCNA) and treating cancer with PCNA-targeting compounds” (University of Cincinnati, priority 2010, dated 2018).

Experiment [1] has as its target T1, PCNA (Homo sapiens, UniProt P12004).
T1 construct: endogenous PCNA was knocked down with transfection of PCNA-specific siRNA; endogenous in cells; host or cells: PC-3
The experiment can be described thus: Association of PCNA with chromatin, PC-3 (NP-E/NP-R western blot). Type of experiment: cell-based. As for the experimental part:
The encircling of DNA and association with chromatin is required for PCNA to execute its function. Therefore, the effect of PCNA-I1 on the association of PCNA with chromatin was investigated. PC-3 cells were treated for various times with 0.5 μM of PCNA-I1 and lysed in buffer A (10 mM Tris-HCl, pH 7.4, 2.5 mM MgCl2, 0.5% NP-40, 1 mM DTT, 1 mM PMSF, and protease inhibitor cocktail). Samples were pelleted by centrifuge (1500×g, 2 min, 4° C.), and supernatant collected as NP-40-extractable ([…]) fraction. The pellet was washed in NP-40 buffer B (10 mM Tris-HCl, pH 7.4, 150 mM NaCl, 1 mM PMSF, and a protease inhibitor cocktail) to release the free form of PCNA. The cells were resuspended and digested in buffer C (10 mM Tris-HCl, pH 7.4, 10 mM NaCl, 5 mM MgCl2, 0.2 mM PMSF, and protease inhibitors) with 200 units/[…] of DNase I for 30 min at 37° C. After centrifugation at 13,000×g for 5 min at 4° C., the supernatant was collected and fractions were analyzed by western blotting. MCF-7, HeLa, and LNCaP cells were also subjected to treatment with 0.5 μM of PCNA-I1 and subjected to western blotting as previously discussed.

A further experiment has as its system CT-26 colon cancer cells. The experiment is described as follows: Growth inhibition by MTT staining, CT-26. Format: cell-based. The settings on record: CT26; Mouse tumor cells; cell line not given; read-out: IC50 Values, cell line cell blank (first row below UV2237). As for the experimental part: Growth inhibitory effects of PCNA-I1 and PCNA-I2 were assessed in human cancer cell lines, mouse cancer cell lines, immortalized mouse cell lines, and human primary cell lines. Specifically, growth inhibitory effects of PCNA-I1 and PCNA-I2 were assessed using MTT staining in the following cells lines: 1) human cancer cell lines including LNCaP (androgen receptor […]), 22Rv1, DU-145, LAPC-4, and PC-3 (androgen receptor […]) prostate cancer cells; MCF-7 and T47D breast cancer cells; A375 and MDA-MB435 melanoma cells; 2) mouse cancer cell lines including TRAMP-C2RE3 prostate cancer cells, B16 and K1735 melanoma cells, UV2237 fibrosarcoma cells, and CT-26 colon cancer cells; 3) immortalized mouse lung cell lines and mouse endothelial cell lines; and 4) primary human cell lines including umbilical endothelial cells (HUVEC, PromoCell, Heidelberg, Germany), primary bone marrow mesenchymal stem cells (HuMSC, PromoCell), primary human mammary epithelial cells (HuBrEC, Lonza, Walkersville, Md.), primary human prostate epithelial cells (HuPrEC, Lonza), and primary mouse spleen lymphocytes (isolated in this laboratory), and primary mouse bone marrow stromal cells (isolated in this laboratory). […]
IC50 values were derived from growth inhibition curves. […] Inhibition of cell growth was calculated using the formula: growth inhibition (%)=(1−A570 of treated/A570 of control)×100. […]

The target of experiment [2] is T1, PCNA. The experiment is described as follows: PCNA trimer formation assay, PC-3 cell lysate. Format: biochemical. To be noted: PC-3 lysate, 1 μM or 10 μM, 3 H, SDS-PAGE; FIG. 9(A). Here is the method:
The effect of PCNA-I1, PCNA-I2, PCNA-I3, PCNA-I4, PCNA-I6, PCNA-I7, PCNA-I8, PCNA-I9, and PCNA-I10 on PCNA trimer formation was investigated by SDS-PAGE and immunoblotting. Specifically, a trimer formation assay was performed on both PC-3 cell lysates and purified recombinant protein. The trimer formation assay was performed on purified recombinant protein to determine whether the effects of PCNA compounds on the stable trimer formation required the participation of other cellular proteins.
Purified His-PCNA (0.1 μg/reaction) and PC-3 cell lysates (50 μg/reaction) were incubated for 3 H at room temperature in a reaction buffer (40 mM Tris-HCl, pH 7.5, 0.2 mg/mL BSA, 10 mM MgCl2, and 10% glycerol) in the absence or presence of DMSO (0.1% vehicle control) or PCNA-I1, PCNA-I2, PCNA-I3, PCNA-I4, PCNA-I6, PCNA-I7, PCNA-I8, PCNA-I9, or PCNA-I10 (1 μM or 10 μM). The reaction was stopped by addition of the SDS-PAGE sample buffer without a reducing agent. The samples were resolved in SDS-PAGE without boiling and analyzed by immunoblotting using PCNA antibody.

T1 sequence (P12004 whole entry): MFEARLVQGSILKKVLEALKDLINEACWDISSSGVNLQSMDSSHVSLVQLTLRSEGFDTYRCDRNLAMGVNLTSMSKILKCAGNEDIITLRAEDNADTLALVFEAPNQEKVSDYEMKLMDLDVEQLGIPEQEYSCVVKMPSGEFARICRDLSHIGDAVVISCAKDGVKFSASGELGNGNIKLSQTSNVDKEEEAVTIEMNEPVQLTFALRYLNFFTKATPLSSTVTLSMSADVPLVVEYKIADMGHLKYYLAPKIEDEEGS

Take `Cc1ccsc1C(=O)N/N=C/c1ccc2ccccc2c1O` [PCNA-I1]: on PCNA [1] (PC-3, 0.5 μM, FIG. 10(A)), the “PCNA in NP-E fraction (free-form PCNA), time course” value is “not significantly altered in cells treated by PCNA-I1 for up to 8 H but reduced in cells treated for 16 H” and the “PCNA in NP-R fraction (chromatin-associated PCNA), time course” value is “reduced in 1 to 2 H”. In addition, the “Chromatin-associated and free form PCNA, concentration dependence” value at PCNA [1] (PC-3, FIG. 10(B)) is “at concentration of 0.5 μM or lower mainly reduced the level of chromatin-associated PCNA and at concentration of 1 μM or higher led to a reduction of both the chromatin-associated and free form PCNA”. Moreover, the IC50 in the experiment with CT-26 colon cancer cells was found to be 0.13 µM. At PCNA [2], the “Portion of PCNA in the trimer form” value was “significantly elevated”.
